Reference: PubChem BioAssay (NCI)
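Growth conditions: 96-well plates. Treatment: test compound, 48 hours, 5 concentrations. Analysis: linear interpolation between bracketing concentrations; unreached endpoints set to highest concentration. TGI denotes the concentration required for complete inhibition of growth.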

Legend:
Test in all cases: NCI tumour cell line growth inhibition, 48 h
CAKI-1 renal = test system: CAKI-1 renal
HT29 colon = test system: HT29 colon
NCI-H226 lung = test system: NCI-H226 lung
HCT-15 colon = test system: HCT-15 colon
KM12 colon = test system: KM12 colon
CCRF-CEM leukemia = test system: CCRF-CEM leukemia
U251 CNS = test system: U251 CNS
COLO 205 colon = test system: COLO 205 colon
UO-31 renal = test system: UO-31 renal
NCI-H522 lung = test system: NCI-H522 lung
SNB-75 CNS = test system: SNB-75 CNS
UACC-62 melanoma = test system: UACC-62 melanoma
DU-145 prostate = test system: DU-145 prostate
K-562 leukemia = test system: K-562 leukemia
MALME-3M melanoma = test system: MALME-3M melanoma
HL-60(TB) leukemia = test system: HL-60(TB) leukemia
SN12C renal = test system: SN12C renal
SF-295 CNS = test system: SF-295 CNS
PC-3 prostate = test system: PC-3 prostate
OVCAR-4 ovarian = test system: OVCAR-4 ovarian
NCI/ADR-RES ovarian = test system: NCI/ADR-RES ovarian
UACC-257 melanoma = test system: UACC-257 melanoma
TK-10 renal = test system: TK-10 renal
SW-620 colon = test system: SW-620 colon
SK-MEL-2 melanoma = test system: SK-MEL-2 melanoma
SK-OV-3 ovarian = test system: SK-OV-3 ovarian
MDA-N = test system: MDA-N
A498 renal = test system: A498 renal
RXF 393 renal = test system: RXF 393 renal
OVCAR-8 ovarian = test system: OVCAR-8 ovarian
HS 578T breast = test system: HS 578T breast
HCT-116 colon = test system: HCT-116 colon
786-0 renal = test system: 786-0 renal
LOX IMVI melanoma = test system: LOX IMVI melanoma
NCI-H460 lung = test system: NCI-H460 lung
IGROV1 ovarian = test system: IGROV1 ovarian
ACHN renal = test system: ACHN renal
HOP-92 NSCLC = test system: HOP-92 NSCLC
MDA-MB-231 breast = test system: MDA-MB-231 breast
M14 melanoma = test system: M14 melanoma
NCI-H23 lung = test system: NCI-H23 lung
HCC-2998 colon = test system: HCC-2998 colon
T-47D breast = test system: T-47D breast
MDA-MB-435 = test system: MDA-MB-435
BT-549 breast = test system: BT-549 breast
MOLT-4 leukemia = test system: MOLT-4 leukemia
SF-539 CNS = test system: SF-539 CNS
HOP-62 NSCLC = test system: HOP-62 NSCLC
OVCAR-3 ovarian = test system: OVCAR-3 ovarian
SK-MEL-28 melanoma = test system: SK-MEL-28 melanoma
SF-268 CNS = test system: SF-268 CNS
RPMI-8226 leukemia = test system: RPMI-8226 leukemia
A549 NSCLC = test system: A549 NSCLC
SK-MEL-5 melanoma = test system: SK-MEL-5 melanoma
MCF7 breast = test system: MCF7 breast
OVCAR-5 ovarian = test system: OVCAR-5 ovarian
SNB-19 CNS = test system: SNB-19 CNS
SR leukemia = test system: SR leukemia

Measured: TGI

CC(C)(C)OC(=O)NCCNC(=O)CN(CC(=O)O)C1CCCCC1N(CC(=O)O)CC(=O)O (stereo not drawn)
> 100 µM: all assays above
